Measurements taken from ChEMBL document CHEMBL1201862, “PubChem BioAssay data set” (2004).
Several values for one entry are separate records, joined by “and”; a condition that tells them apart may be missing. Equal entries are not always repeated.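 Results reflect a 48-hour exposure of cells in 96-well plates to compound at five concentrations. At the GI50, growth is halved.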 Activity calls are given as the source filed them. Rule as the data show it: active = GI50 up to about 1.1 µM and inactive = higher.

Legend:
Assay in all cases: growth of human tumour cells (NCI), 48 h
[1] = tested on: 786-0
[2] = tested on: A498
[3] = tested on: A549
[4] = tested on: ACHN
[5] = tested on: BT-549
[6] = tested on: CAKI-1
[7] = tested on: COLO 205
[8] = tested on: EKVX
[9] = tested on: HCC 2998
[10] = tested on: HCT-116
[11] = tested on: HCT-15
[12] = tested on: HOP-62
[13] = tested on: HOP-92
[14] = tested on: IGROV-1
[15] = tested on: K562
[16] = tested on: KM12
[17] = tested on: LOX IMVI
[18] = tested on: M14
[19] = tested on: MCF7
[20] = tested on: MDA-MB-231
[21] = tested on: MDA-MB-435
[22] = tested on: MDA-N
[23] = tested on: MOLT-4
[24] = tested on: Malme-3M
[25] = tested on: NCI-H226
[26] = tested on: NCI-H23
[27] = tested on: NCI-H460
[28] = tested on: NCI-H522
[29] = tested on: NCI/ADR-RES
[30] = tested on: OVCAR-3
[31] = tested on: OVCAR-4
[32] = tested on: OVCAR-5
[33] = tested on: PC-3
[34] = tested on: RPMI-8226
[35] = tested on: RXF 393
[36] = tested on: SF-268
[37] = tested on: SF-295
[38] = tested on: SF-539
[39] = tested on: SK-MEL-28
[40] = tested on: SK-MEL-2
[41] = tested on: SK-MEL-5
[42] = tested on: SK-OV-3
[43] = tested on: SN12C
[44] = tested on: SNB-19
[45] = tested on: SNB-75
[46] = tested on: SW-620
[47] = tested on: T47D
[48] = tested on: TK-10
[49] = tested on: U-251
[50] = tested on: UACC-257
[51] = tested on: UO-31
[52] = tested on: CCRF-CEM
[53] = tested on: DU-145
[54] = tested on: SR
[55] = tested on: UACC-62
[56] = tested on: HT-29
[57] = tested on: OVCAR-8
[58] = tested on: HL-60
[59] = tested on: Hs-578T

Measured: GI50

C/C=C\C(CC(=O)OC)CC(=O)N(CCC1CN(S(=O)(=O)C(F)(F)F)c2ccccc21)Cc1ccc(OC)cc1OC (configuration not stated)
inactive: [1] > 100 µM | [2] > 100 µM | [3] 77.4 µM | [4] > 100 µM | [5] > 100 µM | [6] > 100 µM | [7] > 100 µM | [8] > 100 µM | [9] > 100 µM | [10] 76.2 µM | [12] > 100 µM | [13] > 100 µM | [14] > 100 µM | [15] 96.6 µM | [16] 45.1 µM | [17] > 100 µM | [18] > 100 µM | [19] > 100 µM | [20] > 100 µM | [21] 35.7 µM | [22] > 100 µM | [23] > 100 µM | [24] > 100 µM | [25] > 100 µM | [26] > 100 µM | [27] 73.1 µM | [28] 57.3 µM | [29] > 100 µM | [30] > 100 µM | [31] 54.7 µM | [32] > 100 µM | [33] 63 µM | [34] 61.7 µM | [35] > 100 µM | [36] > 100 µM | [37] > 100 µM | [38] > 100 µM | [39] > 100 µM | [40] > 100 µM | [41] > 100 µM | [42] > 100 µM | [43] > 100 µM | [44] > 100 µM | [45] > 100 µM | [46] > 100 µM | [47] > 100 µM | [48] > 100 µM | [49] > 100 µM | [50] > 100 µM | [51] > 100 µM
> 100 µM: [11]

CC[C@@]1(O)C(=O)OCc2c1cc1n(c2=O)Cc2c-1nc1ccccc1c2/C=N/c1ccccc1N[C@@H]1c2cc3c(cc2[C@@H](c2cc(OC)c(O)c(OC)c2)[C@H]2C(=O)OC[C@@H]21)OCO3
active: [1] 0.0142 µM | [3] 0.0351 µM | [4] 0.0106 µM | [5] 0.269 µM | [6] 0.0204 µM | [52] < 5 nM | [53] 0.00767 µM | [9] 0.148 µM | [10] 0.0527 µM | [12] 0.0103 µM | [13] 0.209 µM | [17] 0.0194 µM | [18] 0.0239 µM | [19] 0.00684 µM | [20] 1.05 µM | [24] 0.329 µM | [25] 0.0362 µM | [31] 0.427 µM | [33] 0.164 µM | [34] 0.175 µM | [36] 0.0161 µM | [41] 0.0532 µM | [45] 0.028 µM | [54] < 5 nM | [46] 0.157 µM | [47] 0.014 µM | [49] 0.188 µM | [50] 0.278 µM | [55] 0.014 µM

COc1cccc2c1OCC1Cc3ccccc3OC21 (configuration not stated)
43 µM: [11]
inactive: [1] 35.6 µM | [2] 99.1 µM | [3] 35.1 µM | [5] 19.1 µM | [6] 61.4 µM | [52] 54100 nM | [7] 32.2 µM | [53] 49.8 µM | [8] 73.3 µM | [9] 51.6 µM | [10] 33.6 µM | [12] 36.2 µM | [56] 57.4 µM | [14] > 100 µM | [15] 61.1 µM | [16] 42.8 µM | [17] 33.3 µM | [18] 44 µM | [19] 38.1 µM | [20] 31 µM | [21] 24.7 µM | [22] 25.4 µM | [23] 28.8 µM | [24] 42.4 µM | [25] > 100 µM | [26] 42.4 µM | [28] > 100 µM | [29] 33.4 µM | [30] 26.5 µM | [32] > 100 µM | [57] 44.9 µM | [33] 34.9 µM | [34] 47.6 µM | [36] 60.4 µM | [37] 36.6 µM | [38] 41.6 µM | [40] 35.4 µM | [41] 14.8 µM | [42] 92.3 µM | [43] 27.7 µM | [54] 59300 nM | [46] 41.8 µM | [47] 35.2 µM | [48] 21.1 µM | [49] 43.9 µM | [50] 24.4 µM | [55] 45.4 µM | [51] 35.2 µM

Cc1ccc(OCC2OC(n3cnc4c(Cl)ncnc43)CC2Oc2ccc(C)cc2)cc1 (configuration not stated)
inactive: [1] 31.8 µM and 17.4 µM | [5] 20.2 µM and 18.5 µM | [6] 2.21 µM and 1.94 µM | [52] 4.78 µM and 5.09 µM | [8] 3.06 µM and 2.84 µM | [58] 2.29 µM and 1.72 µM | [59] 6.84 µM and 4.7 µM | [15] 4.92 µM and 2.99 µM | [20] 9.51 µM and 5.35 µM | [23] 2.48 µM and 2.49 µM | [25] 11.9 µM and 20.8 µM | [28] 2.27 µM and 1.71 µM | [29] 12.4 µM and 19.2 µM | [32] 26.4 µM and 24.9 µM | [57] 8.93 µM and 8.3 µM | [34] 2.69 µM and 5.31 µM | [36] 7.91 µM and 4.74 µM | [37] 20 µM and 14.9 µM | [38] 22.9 µM and 15.8 µM | [39] 1.71 µM and 2.13 µM | [40] 12.4 µM and 17.3 µM | [41] 15.4 µM and 18.7 µM | [42] 29.8 µM and 20 µM | [45] 26.1 µM and 15.8 µM | [54] 2.66 µM and 3.29 µM | [46] 2.07 µM and 3.43 µM | [48] 30.5 µM and 45 µM | [49] 1.97 µM and 2.55 µM
